The test system of experiment [1] is P2rx7+/+ and P2rx7−/− mice. Briefly: Sucrose preference test (SPT), LPS-induced anhedonia. Type of experiment: in vivo, mouse. Particulars: P2rx7+/+ mice, subacute 4-day 50 mg/kg i.p., LPS 0.2 mg/kg i.p. How it is done:
The experiments were performed using the two-bottle sucrose preference paradigm. The decreased preference for sucrose vs. water in this test has been proposed to reflect impaired sensitivity towards reward and to model anhedonia. Mice were offered a choice of 2% sucrose solution or water during 12-hour nocturnal periods (starting at 19∶00). The bottles were weighed before and after each test session to monitor sucrose and water consumption. The relative position of the sucrose and water bottles were swapped every night to avoid place preferences. The baseline sucrose intake was measured under a habituation period of 3–4 days before administering the treatments, and the mean volume ingested over the last 3 training sessions was used as a baseline value. The sucrose consumption was measured for 4 consecutive nights after LPS (0.2 mg/kg i.p.) or saline administration and expressed as g/100 g body weight or as a percentage of the baseline (%).

A further experiment has as its system acute hippocampal slices. Briefly: [3H]Glutamate and endogenous glutamate release from acute hippocampal slices. Type of experiment: cell-based, mouse. As to conditions: P2rx7−/− slices, ATP 10 mM, antagonist 100 nM 15 min before ATP. How it is done:
The [^3H]Glu release experiments were conducted using the method described in our previous papers. Briefly, the mice were anaesthetized under light CO2 inhalation, and subsequently decapitated. The hippocampus was dissected from each mouse in ice-cold Krebs solution saturated with 95% O2 and 5% CO2, sectioned (400-µm-thick slices) using a McIlwain tissue chopper and incubated in 1 ml of modified Krebs solution (113 mM NaCl, 4.7 mM KCl, 2.5 mM CaCl2, 1.2 mM KH2PO4, 1.2 mM MgSO4, 25.0 mM NaHCO3, and 11.5 mM glucose), pH 7.4, in the presence of 5 µCi/ml [^3H]glutamic acid ([^3H]Glu, 9.8×10^−8 M, specific activity 51 Ci/mmol; Perkin Elmer) for 45 min. The medium was bubbled with 95% O2 and 5% CO2 and maintained at 32°C. After loading, the slices were continuously superfused with 95% O2 and 5% CO2-saturated modified Krebs solution (flow rate: 0.7 ml/min).
Subsequently, the perfused samples were collected over a 3-min period and measured for tritium content. At 6 min after the start of the collection, the slices were subjected to a 6-min perfusion of the agonist (ATP) at various concentrations (1, 3, 6 and 10 mM) and then changed to normal Krebs solution until the end of the collection period. In some experiments, the P2X1 receptor antagonist, NF449 (100 nM), or the selective P2rx7 antagonist Brilliant blue G (100 nM) was applied to the perfusion solution at 15 min before the beginning of the ATP perfusion.
The radioactivity released from the preparations was measured using a Packard 1900 Tricarb liquid scintillation spectrometer, using Ultima Gold Scintillation cocktail. The release of tritium was expressed as a percentage of the amount of radioactivity in the tissue at the sample collection time (fractional release). The tritium uptake in the tissue was determined as the sum of release+the tissue content after the experiment and expressed in Bq/g. For the evaluation of the basal tritium outflow the fractional release measured in four consecutive 3 min samples under drug free conditions were taken into account. The ATP-induced [^3H]Glu efflux calculated as the net release in response to the respective stimulus by subtracting the release before the stimulation from the values measured after stimulation. Selected samples collected under resting conditions and during the peak of the ATP-evoked response were subjected to further HPLC analyses.
The separation of pre-column dansylated amino acids was performed using a gradient elution-working mode at ambient temperature. The mobile phase A consisted of 5/95 (v/v) 78/22 acetonitrile/methanol in 15 mM ammonium formate buffer, and the mobile phase B was composed of 90/10 (v/v 78/22) acetonitrile/methanol in ammonium formate buffer, pH 3.7. The mobile phase B increased linearly (at 0.11 min to 50% 17 min to 72% and 26 min to 100%, followed by a final run to 54 min), the flow rate was 0.7 ml/min. The analytical and the trap column were equilibrated for 10 min, and enrichment and clean-up procedures were performed. The dansylated derivatives were detected using an absorbance detector (Agilent 1100) at a 319 nm wavelength. The retention time of the dansylated Glu was 11.4 min. Pre-column derivatization was performed by mixing 50 µl of dansyl chloride prepared by dissolving 5 mg 5-(dimethylamino)naphthalene-1-sulfonyl chloride in acetonitrile daily and adding 50 µl of 2 M sodium carbonate, which contained norvaline (20 µM) as an internal standard in 25 µl of sample. After a 10-min reaction time at 60°C, the mixture was acidified using 25 µl of 6 M formic acid and injected onto the “trap-column”.

Regarding `CCOc1ccc(Nc2ccc(/C(=C3C=C/C(=[N+](/CC)Cc4cccc(S(=O)(=O)[O-])c4)C=C/3C)c3ccc(N(CC)Cc4cccc(S(=O)(=O)O)c4)cc3C)cc2)cc1` [BBG, Brilliant blue G], in experiment [1], the “sucrose consumption one day after LPS injection” value is recorded as “did not change” and the “sucrose consumption over subsequent days after LPS” value is recorded as “significantly increased”. Moreover, the “residual ATP-evoked [3H]Glu efflux in presence of antagonist” value in the experiment on acute hippocampal slices is reported as 0.56±0.25%.

Source of the values: paper PMC3689833, “Neurochemical Changes in the Mouse Hippocampus Underlying the Antidepressant Effect of Genetic Deletion of P2X7 Receptors” (PLoS ONE, 2013).
